One may read the Ki as the dissociation constant of the complex between target and ligand, obtained from inhibition or displacement. Broadly, the IC50 is the concentration needed to halve the response being measured. A low value points to inhibition by little substance.

Assay [1] deals with T1, NDM-1 (Klebsiella pneumoniae, UniProt C7C422). The experiment in a line: biochemical. The note with it: cleavage of imipenem (100 uM) by NDM-1; read-out: Ki, Imipenem.
Assay [2] deals with purified class A, C and D enzymes (Enterobacter cloacae, UniProt P05364). Format: biochemical. To be noted: purified P99/AmpC of ECL; nitrocefin reporter substrate.
Chain of purified class A, C and D enzymes (Enterobacter cloacae, UniProt P05364) (P05364 21-381): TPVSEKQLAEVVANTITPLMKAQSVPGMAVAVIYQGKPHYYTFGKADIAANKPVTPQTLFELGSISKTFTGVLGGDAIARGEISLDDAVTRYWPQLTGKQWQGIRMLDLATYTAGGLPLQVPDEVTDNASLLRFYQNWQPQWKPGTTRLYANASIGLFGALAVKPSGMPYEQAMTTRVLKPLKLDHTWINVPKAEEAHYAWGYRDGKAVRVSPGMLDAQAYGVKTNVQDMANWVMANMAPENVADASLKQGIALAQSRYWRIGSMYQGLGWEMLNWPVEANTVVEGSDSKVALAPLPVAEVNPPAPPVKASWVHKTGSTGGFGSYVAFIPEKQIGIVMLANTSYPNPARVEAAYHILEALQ
Assay [3] deals with T2, purified class A, C and D enzymes (UniProt P0AD64, L31Q/G234S/E235K, species not given).
T2 construct: Ki (SHV-12, NCF); other: purified SHV-12; nitrocefin reporter substrate
T2 sequence (P0AD64 1-286 L31Q/G234S/E235K): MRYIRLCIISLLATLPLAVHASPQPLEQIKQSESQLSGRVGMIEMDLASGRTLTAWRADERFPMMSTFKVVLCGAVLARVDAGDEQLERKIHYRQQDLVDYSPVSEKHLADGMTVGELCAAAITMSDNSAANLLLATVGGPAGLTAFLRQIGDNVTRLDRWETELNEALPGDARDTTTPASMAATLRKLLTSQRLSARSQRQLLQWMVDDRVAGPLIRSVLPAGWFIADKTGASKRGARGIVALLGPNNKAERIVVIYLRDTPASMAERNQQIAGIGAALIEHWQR
Format: biochemical. To be noted: read-out: Ki (SHV-12, NCF); purified SHV-12; nitrocefin reporter substrate.

The target in assay [4] is T3, purified class A, C and D enzymes (UniProt Q6XEC0).
T3 construct: rows headed: Ki (OXA-48, NCF); other: purified OXA-48; nitrocefin reporter substrate
Format: biochemical. To be noted: read-out: Ki (OXA-48, NCF); purified OXA-48; nitrocefin reporter substrate.

For assay [5], the target named is T4, purified class A, C and D enzymes (UniProt Q9F663).
T4 construct: rows headed: Ki (KPC-2, NCF); other: purified KPC-2; nitrocefin reporter substrate
It is filed as biochemical. To be noted: read-out: Ki (KPC-2, NCF); purified KPC-2; nitrocefin reporter substrate.

In assay [6] the target is purified class A, C and D enzymes (Escherichia coli, UniProt Q9L5C7). Format: biochemical. The note with it: purified CTX-M-14; nitrocefin reporter substrate.
Chain of purified class A, C and D enzymes (Escherichia coli, UniProt Q9L5C7) (Q9L5C7 entry or part of it): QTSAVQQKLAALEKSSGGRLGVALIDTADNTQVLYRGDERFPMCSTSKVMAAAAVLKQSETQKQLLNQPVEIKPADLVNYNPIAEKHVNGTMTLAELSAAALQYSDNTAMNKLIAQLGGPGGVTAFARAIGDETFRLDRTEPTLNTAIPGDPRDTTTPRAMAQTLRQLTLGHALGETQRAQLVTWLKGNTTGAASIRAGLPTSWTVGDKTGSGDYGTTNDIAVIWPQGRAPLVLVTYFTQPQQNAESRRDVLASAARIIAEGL
For another assay, the target named is T5, VIM-1 (Pseudomonas aeruginosa, UniProt A0A0F7KYQ8).
T5 construct: made in house; host or cells: ECM6711 strain carrying pUCP24-VIM-1 plasmid; culture supernatant used unpurified
The experiment in a line: biochemical. To be noted: cleavage of nitrocefin (200 uM) by VIM-1 supernatant.

Assay [7] has as its target T1, NDM-1. The experiment in a line: Inhibition of purified class B carbapenemase NDM-1 (Ki, imipenem substrate). It is filed as biochemical. The note with it: NDM-1, substrate imipenem; read-out: Ki NDM-1, Imipenem.

T1 sequence (C7C422 29-270, looked up, species assumed): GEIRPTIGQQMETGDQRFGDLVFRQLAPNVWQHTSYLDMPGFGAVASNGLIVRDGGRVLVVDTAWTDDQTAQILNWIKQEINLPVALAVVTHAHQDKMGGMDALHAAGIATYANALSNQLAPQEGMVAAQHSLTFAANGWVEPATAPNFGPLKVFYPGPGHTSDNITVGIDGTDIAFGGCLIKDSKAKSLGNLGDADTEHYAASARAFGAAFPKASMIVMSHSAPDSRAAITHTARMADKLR

`O=C(O)c1cccc2c1OB(O)[C@@H](Sc1nnc(NC3CNC3)s1)C2` [Compound 99, (3R)-3-[[5-(azetidin-3-ylamino)-1,3,4-thiadiazol-2-yl]sulfanyl]-2-hydroxy-3,4-dihydro-1,2-benzoxaborinine-8-carboxylic acid]: the inhibitory constant (Ki) was below 10 nM at NDM-1 [1]; below 100 nM in assay [3]; below 100 nM in assay [4]; 100 to 1000 nM in assay [5]; below 10 nM at NDM-1 [7]. In assay [2], the “Ki (P99/AmpC of ECL, NCF)” value is given as “X (Less than 0.1 μM)”. Moreover, the “Ki (CTX-M-14, NCF)” value in assay [6] was “X (Less than 0.1 μM)”. The compound further registered an IC50 against VIM-1 below 1000 nM.
For the compound `COc1ccc2c(c1C(=O)O)OB(O)[C@@H](Sc1nnc(NCCCN)s1)C2` [Compound 100, (3R)-3-[[5-(3-aminopropylamino)-1,3,4-thiadiazol-2-yl]sulfanyl]-2-hydroxy-7-methoxy-3,4-dihydro-1,2-benzoxaborinine-8-carboxylic acid], the Ki at NDM-1 [1] was below 10 nM; in assay [3], below 100 nM; in assay [4] it was below 100 nM; in assay [5], 100 to 1000 nM; on NDM-1 [7] it was below 10 nM. Besides, the “Ki (P99/AmpC of ECL, NCF)” value in assay [2] is on record as “X (Less than 0.1 μM)”. The “Ki (CTX-M-14, NCF)” value in assay [6] is given as “X (Less than 0.1 μM)”. On VIM-1, this compound showed an IC50 below 1000 nM.
As to `COc1ccc2c(c1C(=O)O)OB(O)[C@@H](Sc1nnc(N(CCN)CCN)s1)C2` [Compound 101, (3R)-3-[[5-[bis(2-aminoethyl)amino]-1,3,4-thiadiazol-2-yl]sulfanyl]-2-hydroxy-7-methoxy-3,4-dihydro-1,2-benzoxaborinine-8-carboxylic acid], the Ki is below 10 nM on NDM-1 [1]; below 100 nM in assay [3]; below 100 nM in assay [4]; 100 to 1000 nM in assay [5]; below 10 nM at NDM-1 [7]. Further, in assay [2], the “Ki (P99/AmpC of ECL, NCF)” value is “Z (Greater than 1 μM)”. Moreover, in assay [6], the “Ki (CTX-M-14, NCF)” value is listed as “X (Less than 0.1 μM)”. The IC50 at VIM-1 was below 1000 nM.
Consider `COc1ccc2c(c1C(=O)O)OB(O)[C@@H](Sc1nnc(NC(CN)CN)s1)C2` [Compound 102, (3R)-3-[[5-[[2-amino-1-(aminomethyl)ethyl]amino]-1,3,4-thiadiazol-2-yl]sulfanyl]-2-hydroxy-7-methoxy-3,4-dihydro-1,2-benzoxaborinine-8-carboxylic acid], for which the Ki at NDM-1 [1] is below 10 nM; in assay [3], below 100 nM; in assay [4] it was 100 to 1000 nM; in assay [5] it was above 1000 nM; at NDM-1 [7], below 10 nM. Also, the “Ki (P99/AmpC of ECL, NCF)” value in assay [2] is “Z (Greater than 1 μM)”. Also, the “Ki (CTX-M-14, NCF)” value in assay [6] is “X (Less than 0.1 μM)”. This compound returned an IC50 against VIM-1 below 1000 nM.
In the case of `COc1ccc2c(c1C(=O)O)OB(O)[C@@H](Sc1nnc(N[C@H]3CCNC3)s1)C2` [Compound 103, (3R)-2-hydroxy-7-methoxy-3-[[5-[[(3S)-pyrrolidin-3-yl]amino]-1,3,4-thiadiazol-2-yl]sulfanyl]-3,4-dihydro-1,2-benzoxaborinine-8-carboxylic acid], the Ki on NDM-1 [1] was below 10 nM; in assay [3], below 100 nM; in assay [4], below 100 nM; in assay [5], 100 to 1000 nM; at NDM-1 [7], below 10 nM. Further, the “Ki (P99/AmpC of ECL, NCF)” value in assay [2] was “Y (0.1 μM to 1 μM)”. Moreover, in assay [6], the “Ki (CTX-M-14, NCF)” value was “X (Less than 0.1 μM)”. Also, the IC50 at VIM-1 was below 1000 nM.
With `COc1ccc2c(c1C(=O)O)OB(O)[C@@H](Sc1nnc(NC3CCNCC3)s1)C2` [Compound 104, (3R)-2-hydroxy-7-methoxy-3-[[5-(4-piperidylamino)-1,3,4-thiadiazol-2-yl]sulfanyl]-3,4-dihydro-1,2-benzoxaborinine-8-carboxylic acid], the Ki is below 10 nM on NDM-1 [1]; below 100 nM in assay [3]; below 100 nM in assay [4]; below 100 nM in assay [5]; below 10 nM on NDM-1 [7]. Besides, in assay [2], the “Ki (P99/AmpC of ECL, NCF)” value is “Y (0.1 μM to 1 μM)”. For the same compound, in assay [6], the “Ki (CTX-M-14, NCF)” value is on record as “X (Less than 0.1 μM)”. In addition, the IC50 on VIM-1 was below 1000 nM.
As for `COc1ccc2c(c1C(=O)O)OB(O)[C@@H](Sc1nnc(NCCNC3CNC3)s1)C2` [Compound 105, (3R)-3-[[5-[2-(azetidin-3-ylamino)ethylamino]-1,3,4-thiadiazol-2-yl]sulfanyl]-2-hydroxy-7-methoxy-3,4-dihydro-1,2-benzoxaborinine-8-carboxylic acid], the inhibition constant Ki on NDM-1 [1] is below 10 nM; in assay [3], below 100 nM; in assay [4], below 100 nM; in assay [5], 100 to 1000 nM; at NDM-1 [7] it was below 10 nM. Moreover, the “Ki (P99/AmpC of ECL, NCF)” value in assay [2] is reported as “Y (0.1 μM to 1 μM)”. The “Ki (CTX-M-14, NCF)” value in assay [6] is given as “X (Less than 0.1 μM)”. The compound further displayed an IC50 at VIM-1 below 1000 nM.
For the compound `COc1ccc2c(c1C(=O)O)OB(O)[C@@H](Sc1nnc(SCCN)s1)C2` [Compound 107, (3R)-3-[[5-(2-aminoethylsulfanyl)-1,3,4-thiadiazol-2-yl]sulfanyl]-2-hydroxy-7-methoxy-3,4-dihydro-1,2-benzoxaborinine-8-carboxylic acid], the inhibition constant (Ki) is below 10 nM on NDM-1 [1]; below 100 nM in assay [3]; below 100 nM in assay [4]; 100 to 1000 nM in assay [5]; below 10 nM on NDM-1 [7]. Besides, the “Ki (P99/AmpC of ECL, NCF)” value in assay [2] is on record as “Y (0.1 μM to 1 μM)”. Further, the “Ki (CTX-M-14, NCF)” value in assay [6] is listed as “X (Less than 0.1 μM)”. Also, at VIM-1, the IC50 was below 1000 nM.
For `COc1ccc2c(c1C(=O)O)OB(O)[C@@H](Sc1nnc(SC3CNC3)s1)C2` [Compound 108, (3R)-3-[[5-(azetidin-3-ylsulfanyl)-1,3,4-thiadiazol-2-yl]sulfanyl]-2-hydroxy-7-methoxy-3,4-dihydro-1,2-benzoxaborinine-8-carboxylic acid], the Ki at NDM-1 [1] was 10 to 100 nM; in assay [3] it was below 100 nM; in assay [4], below 100 nM; in assay [5] it was 100 to 1000 nM; on NDM-1 [7], 10 to 100 nM. For the same compound, the “Ki (P99/AmpC of ECL, NCF)” value in assay [2] is “Y (0.1 μM to 1 μM)”. In addition, in assay [6], the “Ki (CTX-M-14, NCF)” value is “X (Less than 0.1 μM)”. The compound also came in with an IC50 against VIM-1 below 1000 nM.
For `COc1ccc2c(c1C(=O)O)OB(O)[C@@H](Sc1nnc(SC(CN)CN)s1)C2` [Compound 109, (3R)-3-[[5-[2-amino-1-(aminomethyl)ethyl]sulfanyl-1,3,4-thiadiazol-2-yl]sulfanyl]-2-hydroxy-7-methoxy-3,4-dihydro-1,2-benzoxaborinine-8-carboxylic acid], the Ki was below 10 nM on NDM-1 [1]; below 100 nM in assay [3]; below 100 nM in assay [4]; 100 to 1000 nM in assay [5]; below 10 nM on NDM-1 [7]. In assay [2], the “Ki (P99/AmpC of ECL, NCF)” value was “Y (0.1 μM to 1 μM)”. For the same compound, the “Ki (CTX-M-14, NCF)” value in assay [6] is “X (Less than 0.1 μM)”. Further, at VIM-1, the IC50 was below 1000 nM.
In the case of `COc1ccc2c(c1C(=O)O)OB(O)[C@@H](Sc1nnc(SCCN3CCOCC3)s1)C2` [Compound 110, (3R)-2-hydroxy-7-methoxy-3-[[5-(2-morpholinoethylsulfanyl)-1,3,4-thiadiazol-2-yl]sulfanyl]-3,4-dihydro-1,2-benzoxaborinine-8-carboxylic acid], the Ki was above 100 nM on NDM-1 [1]; below 100 nM in assay [3]; below 100 nM in assay [4]; below 100 nM in assay [5]; above 100 nM at NDM-1 [7]. In addition, the “Ki (P99/AmpC of ECL, NCF)” value in assay [2] is on record as “Y (0.1 μM to 1 μM)”. In assay [6], the “Ki (CTX-M-14, NCF)” value is given as “X (Less than 0.1 μM)”. This compound also gave an IC50 at VIM-1 below 1000 nM.
On to `COc1ccc2c(c1C(=O)O)OB(O)[C@@H](Sc1nnc(Sc3nnc(N)s3)s1)C2` [Compound 111, (3R)-3-[[5-[(5-amino-1,3,4-thiadiazol-2-yl)sulfanyl]-1,3,4-thiadiazol-2-yl]sulfanyl]-2-hydroxy-7-methoxy-3,4-dihydro-1,2-benzoxaborinine-8-carboxylic acid], for which the inhibitory constant (Ki) on NDM-1 [1] is above 100 nM; in assay [3], below 100 nM; in assay [4], above 1000 nM; in assay [5] it was 100 to 1000 nM; on NDM-1 [7], above 100 nM. Moreover, the “Ki (P99/AmpC of ECL, NCF)” value in assay [2] is given as “Y (0.1 μM to 1 μM)”. Moreover, the “Ki (CTX-M-14, NCF)” value in assay [6] was “X (Less than 0.1 μM)”. The IC50 against VIM-1 is below 1000 nM.

For the origin of these results see patent US10206937B2, “Boronic acid derivatives and therapeutic uses thereof” (Qpex Biopharma, Inc., priority 2014, dated 2019).
